# Reference: paper PMC7247818, “Demonstration of Binding Induced Structural Plasticity in a SH2 Domain” (Frontiers in Molecular Biosciences, 2020)
# Where a SMILES comes first, the peptide text is derived from it.
# Assays:
# Settings in all cases: 10°C
# [1] = biological target: T1, N-SH2 domain of PI3K, I17V variant (Homo sapiens, UniProt P27986, I338V); assay: Stopped-flow binding kinetics, N-SH2 I17V
# T1 construct: made in house
# Procedure: (§1) N-SH2 wild-type and all the site-directed variants were expressed and purified as described previously ([Visconti et al., 2019]). All the mutants were obtained using a QuickChange Lightning Site-Directed Mutagenesis kit (Agilent technologies), accordingly to manufacturer instructions. Peptides with sequence TNSEDNpYVPMNPG mimicking wild-type Gab2 and TNSEDNpYVPANPG mimicking the M457A variant of Gab2 were purchased from GenScript Biotech Corporation.
# (§2) Binding kinetics experiments were performed using a single-mixing SX-18 stopped-flow instrument (Applied Photophysics); all binding experiments were conducted in 50 mM Hepes pH 7.4 300 mM NaCl at 10°C. Excitation was at 280 nm and emission was collected using a […] cut-off glass filter. Pseudo-first order binding experiments were performed mixing a constant concentration of dansylated Gab2_448–460 and Gab2_448–460 M457A (1 μM) vs. N-SH2 wt and its mutants at concentrations ranging from […]. For each N-SH2 concentration, usually 5 individual traces were averaged and in all cases the fluorescence time courses obtained was satisfactorily fitted by using a single exponential equation.
# (§3) One of the aims of this study is to depict the molecular details of the interaction between the N-SH2 domain of PI3K and Gab2. A powerful strategy to achieve this goal relies on perturbing the system by producing conservative site-directed variants while monitoring the effect of mutations on the association and dissociation rate constants between the interacting partners (kon and koff respectively). Thus, we designed and successfully produced 21 site-directed variants of the N-SH2 domain and challenged them vs. a peptide mimicking the region of Gab2 ranging from residue 448–460 (Gab2_448–460), containing the pY-X-X-M motif that is specifically recognized by the N-SH2 domain ([Waksman et al., 1992]; [Songyang et al., 1993]). The choise of mutations was designed in analogy to phi-value analysis methodology in protein folding studies ([Fersht and Sato, 2004]). […] To monitor binding by fluorescence, a dansyl group was added at the N-terminus of the peptide. The binding reaction was monitored by stopped-flow experiments following the change in FRET signal, taking advantage of the two Trp residues on the N-SH2 domain in positions 12 and 14 as fluorescence donor and the dansyl group on Gab2_448–460 as acceptor. The experiments were performed in pseudo-first order conditions with Gab2_448–460 at fixed concentration of 1 μM rapidly mixed vs. large excess of N-SH2 wt and its variants, ranging from 4 to 14 μM, in buffer Hepes 50 mM, NaCl 300 mM, pH 7.4, at 10°C.
# (§4) with kon being the slope of the line and koff the intercept with the y-axis. Since indirect calculation of koff obtained by extrapolation is associated with high experimental error, we performed displacement experiments to directly measure koff by challenging a pre-incubated complex of dansylated Gab2_448–460 and N-SH2 domain both at the concentration of 1 μM vs. a large excess of non-dansylated Gab2_448–460 (50 μM). Kinetic parameters extracted from data together with the calculated changes in activation and equilibrium free energies are reported in Table 1. Analysis of kinetic data highlights that T48S, L51A, and L59A variations cause a detectable decrease of the affinity of the domain for Gab2_448–460 of ∼10-fold, affecting both the kon and koff. […] Since L99 residue is part of the binding pocket, this dramatic effect on the binding affinity is expected.
# (§5) SH2 domains bind ligands with a phosphorylated tyrosine in their sequence. The N-SH2 domain of PI3K is known to recognize a specific consensus sequences that present a methionine in position +3 in respect to the phosphotyrosine (M457 in Gab2). […]
# [2] = biological target: T2, N-SH2 domain of PI3K, T29S variant (Homo sapiens, UniProt P27986, T350S); assay: Stopped-flow binding kinetics, N-SH2 T29S
# T2 construct: made in house
# T2 sequence (P27986 333-428 T350S): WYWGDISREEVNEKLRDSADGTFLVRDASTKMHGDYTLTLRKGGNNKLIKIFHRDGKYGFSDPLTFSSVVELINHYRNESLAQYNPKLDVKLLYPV
# Procedure: as §1, §2, §3, §4, §5
# [3] = biological target: T3, N-SH2 domain of PI3K, T33S variant (Homo sapiens, UniProt P27986, T354S); assay: Stopped-flow binding kinetics, N-SH2 T33S
# T3 construct: made in house
# T3 sequence (P27986 333-428 T354S): as the sequence (P27986 333-428 T350S) above, with S18T, T22S counted along it
# Procedure: as §1, §2, §3, §4, §5
# [4] = biological target: T4, N-SH2 domain of PI3K, L35A variant (Homo sapiens, UniProt P27986, L356A); assay: Stopped-flow binding kinetics, N-SH2 L35A
# T4 construct: made in house
# T4 sequence (P27986 333-428 L356A): as the sequence (P27986 333-428 T350S) above, with S18T, L24A counted along it
# Procedure: as §1, §2
# (§6) One of the aims of this study is to depict the molecular details of the interaction between the N-SH2 domain of PI3K and Gab2. […] To monitor binding by fluorescence, a dansyl group was added at the N-terminus of the peptide. The binding reaction was monitored by stopped-flow experiments following the change in FRET signal, taking advantage of the two Trp residues on the N-SH2 domain in positions 12 and 14 as fluorescence donor and the dansyl group on Gab2_448–460 as acceptor. […]
# (§7) with kon being the slope of the line and koff the intercept with the y-axis. […] Kinetic parameters extracted from data together with the calculated changes in activation and equilibrium free energies are reported in Table 1. […]
# [5] = biological target: T5, N-SH2 domain of PI3K, T48S variant (Homo sapiens, UniProt P27986, T369S); assay: Stopped-flow binding kinetics, N-SH2 T48S
# T5 construct: made in house
# T5 sequence (P27986 333-428 T369S): as the sequence (P27986 333-428 T350S) above, with S18T, T37S counted along it
# Procedure: as §1, §2, §6, §7
# [6] = biological target: T6, N-SH2 domain of PI3K, L59A variant (Homo sapiens, UniProt P27986, L380A); assay: Stopped-flow binding kinetics, N-SH2 L59A
# T6 construct: made in house
# T6 sequence (P27986 333-428 L380A): as the sequence (P27986 333-428 T350S) above, with S18T, L48A counted along it
# Procedure: as §1, §2, §6, §7
# [7] = biological target: T7, N-SH2 domain of PI3K, I60V variant (Homo sapiens, UniProt P27986, I381V); assay: Stopped-flow binding kinetics, N-SH2 I60V
# T7 construct: made in house
# T7 sequence (P27986 333-428 I381V): as the sequence (P27986 333-428 T350S) above, with S18T, I49V counted along it
# Procedure: as §1, §2, §3, §4, §5
# [8] = biological target: T8, N-SH2 domain of PI3K, T76S variant (Homo sapiens, UniProt P27986, T397S); assay: Stopped-flow binding kinetics, N-SH2 T76S
# T8 construct: made in house
# T8 sequence (P27986 333-428 T397S): as the sequence (P27986 333-428 T350S) above, with S18T, T65S counted along it
# Procedure: as §1, §2, §3, §4, §5
# [9] = biological target: T9, N-SH2 domain of PI3K, V80A variant (Homo sapiens, UniProt P27986, V401A); assay: Stopped-flow binding kinetics, N-SH2 V80A
# T9 construct: made in house
# T9 sequence (P27986 333-428 V401A): as the sequence (P27986 333-428 T350S) above, with S18T, V69A counted along it
# Procedure: as §1, §2, §3, §4, §5
# [10] = biological target: T10, N-SH2 domain of PI3K, L99A variant (Homo sapiens, UniProt P27986, L420A); assay: Stopped-flow binding kinetics, N-SH2 L99A
# T10 construct: made in house
# T10 sequence (P27986 333-428 L420A): as the sequence (P27986 333-428 T350S) above, with S18T, L88A counted along it
# Procedure: as §1, §2, §6, §7
# [11] = biological target: T11, N-SH2 domain of PI3K, V101A variant (Homo sapiens, UniProt P27986, V422A); assay: Stopped-flow binding kinetics, N-SH2 V101A
# T11 construct: made in house
# T11 sequence (P27986 333-428 V422A): as the sequence (P27986 333-428 T350S) above, with S18T, V90A counted along it
# Procedure: as §1, §2, §3, §4, §5
# [12] = biological target: T12, N-SH2 domain of PI3K, L104A variant (Homo sapiens, UniProt P27986, L425A); assay: Stopped-flow binding kinetics, N-SH2 L104A
# T12 construct: made in house
# T12 sequence (P27986 333-428 L425A): as the sequence (P27986 333-428 T350S) above, with S18T, L93A counted along it
# Procedure: as §1, §2, §3, §4, §5
# [13] = displacement experiment, pH 7.4, 300 mM NaCl
# [14] = stopped-flow FRET, 1 μM dansylated peptide, 50 mM Hepes pH 7.4, 300 mM NaCl
# [15] = stopped-flow kinetics, pH 7.4, 300 mM NaCl
# T1 sequence (P27986 333-428 I338V): as the sequence (P27986 333-428 T350S) above, with I6V, S18T counted along it
smiles,measurement,setting,value
CSCC[C@H](NC(=O)[C@@H]1CCCN1C(=O)[C@@H](NC(=O)[C@H](Cc1ccc(OP(=O)(O)O)cc1)NC(=O)[C@H](CC(N)=O)NC(=O)[C@H](CC(=O)O)NC(=O)[C@H](CCC(=O)O)NC(=O)[C@H](CO)NC(=O)[C@H](CC(N)=O)NC(=O)[C@@H](N)[C@@H](C)O)C(C)C)C(=O)N[C@@H](CC(N)=O)C(=O)N1CCC[C@H]1C(=O)NCC(=O)O [Gab2_448–460] (HELM PEPTIDE1{T.N.S.E.D.N.[O=C([C@H](Cc1ccc(OP(=O)(O)O)cc1)N[*:1])[*:2]].V.P.M.N.P.G}$$$$V2.0),koff,[1]; [13],4.5 ± 0.2 s⁻¹
same,kon,[1]; [14],2.44e+07 ± 1.7e+06 M⁻¹ s⁻¹
same,Kd,[1]; [15],200 ± 100 nM
same,koff,[2]; [13],4.3 ± 0.2 s⁻¹
same,kon,[2]; [14],1.75e+07 ± 500000 M⁻¹ s⁻¹
same,Kd,[2]; [15],300 ± 100 nM
same,koff,[3]; [13],3.6 ± 0.2 s⁻¹
same,kon,[3]; [14],2.26e+07 ± 2.4e+06 M⁻¹ s⁻¹
same,Kd,[3]; [15],200 ± 100 nM
same,koff,[4]; [13],6.7 ± 0.3 s⁻¹
same,kon,[4]; [14],7e+06 ± 600000 M⁻¹ s⁻¹
same,Kd,[4]; [15],1000 ± 100 nM
same,koff,[5]; [13],23 ± 1 s⁻¹
same,kon,[5]; [14],6.4e+06 ± 500000 M⁻¹ s⁻¹
same,Kd,[5]; [15],3700 ± 100 nM
same,koff,[6]; [13],21 ± 1 s⁻¹
same,kon,[6]; [14],6.7e+06 ± 1e+06 M⁻¹ s⁻¹
same,Kd,[6]; [15],3200 ± 200 nM
same,koff,[7]; [13],6.9 ± 0.3 s⁻¹
same,kon,[7]; [14],9.1e+06 ± 1.1e+06 M⁻¹ s⁻¹
same,Kd,[7]; [15],800 ± 100 nM
same,koff,[8]; [13],5.3 ± 0.3 s⁻¹
same,kon,[8]; [14],1.69e+07 ± 1.3e+06 M⁻¹ s⁻¹
same,Kd,[8]; [15],300 ± 100 nM
same,koff,[9]; [13],4.4 ± 0.2 s⁻¹
same,kon,[9]; [14],1.6e+07 ± 1.2e+06 M⁻¹ s⁻¹
same,Kd,[9]; [15],300 ± 100 nM
same,koff,[10]; [13],160 ± 10 s⁻¹
same,kon,[10]; [14],8.2e+06 ± 1.7e+06 M⁻¹ s⁻¹
same,Kd,[10]; [15],20000 ± 200 nM
same,koff,[11]; [13],7 ± 0.4 s⁻¹
same,kon,[11]; [14],1.34e+07 ± 400000 M⁻¹ s⁻¹
same,Kd,[11]; [15],500 ± 100 nM
same,koff,[12]; [13],3.5 ± 0.2 s⁻¹
same,kon,[12]; [14],1.65e+07 ± 200000 M⁻¹ s⁻¹
same,Kd,[12]; [15],200 ± 100 nM
